± gives the uncertainty stated by the source.
Assay: xn = mol fraction of the nth substance listed

CCCCCCCCn1cc[n+](C)c1.N#C[S-] + [Br-].[Li+] + CN1CCCC1=O
298.15 K, 101 kPa
Settings | viscosity [mPa·s]
x1 = 0.001194, x2 = 0.02592 | 2.51 ± 0.03
x1 = 0.001279, x2 = 0.05082 | 3.301 ± 0.039
x1 = 0.001363, x2 = 0.07495 | 4.627 ± 0.053
x1 = 0.002361, x2 = 0.07487 | 4.663 ± 0.054
x1 = 0.002564, x2 = 0.05075 | 3.33 ± 0.039
x1 = 0.002749, x2 = 0.02588 | 2.538 ± 0.031
x1 = 0.003543, x2 = 0.07478 | 4.688 ± 0.054
x1 = 0.003719, x2 = 0.05069 | 3.358 ± 0.04
x1 = 0.003898, x2 = 0.02585 | 2.568 ± 0.031
x1 = 0.004852, x2 = 0.05063 | 3.389 ± 0.04
x1 = 0.005129, x2 = 0.07466 | 4.714 ± 0.054
x1 = 0.00561, x2 = 0.02581 | 2.544 ± 0.031
x1 = 0.005681, x2 = 0.05059 | 3.416 ± 0.04
x1 = 0.006324, x2 = 0.07457 | 4.741 ± 0.055
x1 = 0.006743, x2 = 0.02578 | 2.6 ± 0.031
x1 = 0.007583, x2 = 0.07448 | 4.77 ± 0.055
x1 = 0.007954, x2 = 0.05048 | 3.441 ± 0.04
x1 = 0.008125, x2 = 0.02574 | 2.622 ± 0.032
x1 = 0.008906, x2 = 0.07438 | 4.799 ± 0.055
x1 = 0.009097, x2 = 0.05042 | 3.471 ± 0.041
x1 = 0.009222, x2 = 0.02572 | 2.651 ± 0.032
x1 = 0.009986, x2 = 0.05037 | 3.503 ± 0.041
x1 = 0.01013, x2 = 0.02569 | 2.674 ± 0.032
x1 = 0.01054, x2 = 0.07426 | 4.824 ± 0.056

CCCCCC[n+]1ccccc1.O=[N+]([O-])[O-] + CC#N
298.15 K, 101 kPa
Settings | viscosity [mPa·s]
x1 = 0.004149 | 0.5468 ± 0.0057
x1 = 0.008252 | 0.6095 ± 0.006
x1 = 0.0124 | 0.6478 ± 0.0063
x1 = 0.01616 | 0.6731 ± 0.0064
x1 = 0.02021 | 0.6913 ± 0.0066
x1 = 0.02422 | 0.7042 ± 0.0067
x1 = 0.02814 | 0.7132 ± 0.0068
x1 = 0.032 | 0.7169 ± 0.0068
x1 = 0.03564 | 0.7185 ± 0.0069
x1 = 0.03937 | 0.7176 ± 0.0069

CCCCCC[n+]1ccccc1.O=[N+]([O-])[O-] + O
298.15 K, 101 kPa
Settings | viscosity [mPa·s]
x1 = 0.0002072 | 0.9698 ± 0.0081
x1 = 0.0003855 | 1.002 ± 0.0083
x1 = 0.0005691 | 1.012 ± 0.0083
x1 = 0.0007311 | 1.033 ± 0.0085
x1 = 0.0009416 | 1.045 ± 0.0085
x1 = 0.001112 | 1.058 ± 0.0086
x1 = 0.001262 | 1.069 ± 0.0087
x1 = 0.00145 | 1.101 ± 0.0089
x1 = 0.001634 | 1.107 ± 0.0089
x1 = 0.001826 | 1.122 ± 0.0091
x1 = 0.003609 | 1.219 ± 0.0097
x1 = 0.005402 | 1.312 ± 0.01
x1 = 0.007153 | 1.39 ± 0.011
x1 = 0.008806 | 1.453 ± 0.012
x1 = 0.01076 | 1.515 ± 0.012
x1 = 0.01248 | 1.581 ± 0.013
x1 = 0.01427 | 1.646 ± 0.013
x1 = 0.01599 | 1.702 ± 0.014
x1 = 0.01772 | 1.758 ± 0.015

CCOC(C)(C)C + CCO + CCOS(=O)(=O)[O-].CC[n+]1ccn(C)c1
298.15 K, 101 kPa
Settings | viscosity [mPa·s]
x2 = 0.1248, x1 = 0.0174 | 63 ± 1.8
x2 = 0.1973, x1 = 0.0324 | 46.3 ± 1.2
x2 = 0.3162, x1 = 0.029 | 30.74 ± 0.76
x2 = 0.395, x1 = 0.0475 | 21.09 ± 0.5
x2 = 0.4866, x1 = 0.0465 | 14.2 ± 0.32
x2 = 0.5653, x1 = 0.0501 | 9.77 ± 0.22
x2 = 0.6539, x1 = 0.3132 | 0.878 ± 0.025
x2 = 0.6567, x1 = 0.0845 | 5.13 ± 0.12
x2 = 0.6872, x1 = 0.0848 | 4.39 ± 0.1
x2 = 0.6916, x1 = 0.2368 | 1.352 ± 0.033
x2 = 0.6923, x1 = 0.035 | 5.65 ± 0.13
x2 = 0.7064, x1 = 0.1236 | 3.102 ± 0.072
x2 = 0.7089, x1 = 0.2556 | 0.974 ± 0.025
x2 = 0.7162, x1 = 0.1736 | 1.937 ± 0.046
x2 = 0.7254, x1 = 0.0338 | 4.79 ± 0.11
x2 = 0.7605, x1 = 0.0564 | 3.565 ± 0.083
x2 = 0.7622, x1 = 0.1589 | 1.568 ± 0.038
x2 = 0.7999, x1 = 0.077 | 2.401 ± 0.056
x2 = 0.8182, x1 = 0.1407 | 1.208 ± 0.029
x2 = 0.841, x1 = 0.072 | 1.86 ± 0.044
x2 = 0.902, x1 = 0.0527 | 1.428 ± 0.034

CC[n+]1ccn(C)c1.N#C[S-] + CC1COC(=O)O1
101.3 kPa
Settings | electrical conductivity [S/m] | viscosity [mPa·s]
293.15 K, x1 = 0.2045 | 2.09 ± 0.022 | 5.834 ± 0.081
293.15 K, x1 = 0.2984 | 2.24 ± 0.023 | 7.631 ± 0.092
298.15 K, x1 = 0.0989 | 1.68 ± 0.017 | 3.689 ± 0.069
298.15 K, x1 = 0.4 | 2.36 ± 0.024 | 8.466 ± 0.098
298.15 K, x1 = 0.599 | 2.15 ± 0.022 | 12.93 ± 0.13
298.15 K, x1 = 0.7045 | 2.06 ± 0.021 | 15.47 ± 0.15
313.15 K, x1 = 0.7045 | 2.76 ± 0.028 | 10.1 ± 0.11
318.15 K, x1 = 0.2045 | 3.18 ± 0.032 | 2.991 ± 0.066
318.15 K, x1 = 0.2984 | 3.43 ± 0.035 | 3.817 ± 0.069
318.15 K, x1 = 0.599 | 3.12 ± 0.032 | 7.316 ± 0.09
318.15 K, x1 = 0.7045 | 3.02 ± 0.031 | 8.83 ± 0.1
318.15 K, x1 = 0.8942 | 2.77 ± 0.028 | 11.64 ± 0.12
323.15 K, x1 = 0.2045 | 3.45 ± 0.035 | 2.665 ± 0.065
323.15 K, x1 = 0.499 | 3.49 ± 0.035 | 5.278 ± 0.077
323.15 K, x1 = 0.599 | 3.4 ± 0.034 | 6.4 ± 0.083
328.15 K, x1 = 0.499 | 3.77 ± 0.038 | 4.608 ± 0.073
328.15 K, x1 = 0.599 | 3.68 ± 0.037 | 5.614 ± 0.079
328.15 K, x1 = 0.796 | 3.45 ± 0.035 | 7.7 ± 0.092
328.15 K, x1 = 0.8942 | 3.31 ± 0.034 | 8.9 ± 0.1
333.15 K, x1 = 0.0989 | 3.33 ± 0.034 | 1.702 ± 0.062
338.15 K, x1 = 0.0989 | 3.601 ± 0.036 | –
338.18 K, x1 = 0.2984 | – | 2.283 ± 0.063
343.15 K, x1 = 0.4 | 4.79 ± 0.048 | 2.568 ± 0.064
343.15 K, x1 = 0.499 | 4.66 ± 0.047 | 3.183 ± 0.067
343.15 K, x1 = 1 | 4.01 ± 0.041 | 7.236 ± 0.088

CCC(=O)[O-].CC[NH+]1CCNCC1 + CCCO
101 kPa
Settings | viscosity [mPa·s]
298.15 K, x2 = 0.4017 | 47.45 ± 0.8
308.15 K, x2 = 0.3041 | 39.45 ± 0.67

CC[NH3+].O=[N+]([O-])[O-] + CC[NH2+]CC.O=[N+]([O-])[O-]
Settings | electrical conductivity [S/m]
323.15 K, 101 kPa, frequency 0.00293 MHz, x2 = 0 | 4.22

101 kPa, x2 = 0
Settings | viscosity [mPa·s]
323.15 K | 17.6
333.15 K | 13.8

O=C1O[C@H]([C@@H](O)CO)C(O)=C1O + CC[n+]1ccn(C)c1.O=S(=O)([O-])O + O
viscosity [mPa·s], 100 kPa
Settings | x1 = 0.0002709, x2 = 0 | x1 = 0.0005412, x2 = 0 | x1 = 0.0008101, x2 = 0 | x1 = 0.001079, x2 = 0 | x1 = 0.001351, x2 = 0 | x1 = 0.001618, x2 = 0 | x1 = 0.00189, x2 = 0
293.15 K | 1.01 ± 0.1 | 1.01 ± 0.1 | 1.02 ± 0.1 | 1.02 ± 0.1 | 1.03 ± 0.1 | 1.03 ± 0.1 | 1.04 ± 0.1
298.15 K | 0.9 ± 0.1 | 0.9 ± 0.1 | 0.91 ± 0.1 | 0.91 ± 0.1 | 0.92 ± 0.1 | 0.92 ± 0.1 | 0.93 ± 0.1
303.15 K | 0.8 ± 0.1 | 0.81 ± 0.1 | 0.81 ± 0.1 | 0.82 ± 0.1 | 0.82 ± 0.1 | 0.83 ± 0.1 | 0.84 ± 0.1
308.15 K | 0.72 ± 0.1 | 0.73 ± 0.1 | 0.73 ± 0.1 | 0.74 ± 0.1 | 0.74 ± 0.1 | 0.75 ± 0.1 | 0.76 ± 0.1
313.15 K | 0.66 ± 0.1 | 0.66 ± 0.1 | 0.67 ± 0.1 | 0.67 ± 0.1 | 0.68 ± 0.1 | 0.68 ± 0.1 | 0.69 ± 0.1
318.15 K | 0.61 ± 0.1 | 0.61 ± 0.1 | 0.62 ± 0.1 | 0.62 ± 0.1 | 0.63 ± 0.1 | 0.63 ± 0.1 | 0.64 ± 0.1

CCCC[N+]1(C)CCCCC1.N#C[S-] + O
101 kPa
Settings | viscosity [mPa·s]
318.15 K, x2 = 0.3741 | 57.3 ± 1.1
328.15 K, x2 = 0.2774 | 59.4 ± 1.4
328.15 K, x2 = 0.3741 | 37.2 ± 1.2
328.15 K, x2 = 0.6302 | 13.48 ± 0.42
338.15 K, x2 = 0.2774 | 39.6 ± 1.3
348.15 K, x2 = 0.5111 | 11.92 ± 0.37

Source: the CheMixHub ionic liquid set
